For one data set, the system named is C57BL/6 mice. The experiment in a line: Ocular histopathology (retina) in mice at terminal (Day 38) and recovery (Day 66) necropsy. The note with it: for animals affected by swelling of rod and cone processes (incidence and grade): terminal necropsy. It is filed as in vivo. The protocol: Eyes were harvested for histopathology assessment from the tumor-naïve groups as the terminal necropsy cohort on Day 38, the last day the 28-day dosing period. Since not all terminal necropsy groups were dosed for the entirety of the 28-day dosing period, some groups effectively experienced a 1-3 week recovery period. Eyes were harvested for histopathology assessment from the tumor-bearing groups as the recovery necropsy cohort on Day 66, the last day of the 28-day recovery period. Since not all recovery necropsy groups were dosed for the entirety of the 28-day dosing period, some of these groups effectively experienced an extended recovery period beyond the 28-day recovery period of an additional 1-3 weeks. […] This finding was only visualized under epifluorescent illumination and was characterized by scattered individual processes that were increased in diameter up to five times the surrounding processes, with increased autofluorescence. […] It remained unclear whether these findings were adverse, as no degenerative changes were observed. If the material affected vision, it would be considered adverse; however, as this study was not designed to test for alterations in vision, adversity could not be determined.
Terminal necropsy from non-tumor-bearing cohorts occurred at 28 days from the start of dosing, and eyes from 4-5 animals in each group were harvested for histopathology assessment. Since not all terminal necropsy groups were dosed for the entirety of the 28-day dosing period, some groups effectively experienced a 1-3 week recovery period. Recovery sacrifice from tumor-bearing cohorts occurred at 28 days after the 28-day dosing period, and eyes from 5 animals in each group were harvested for histopathology assessment. Since not all recovery necropsy groups were dosed for the entirety of the 28-day dosing period, some groups effectively experienced an extended recovery period beyond the 28-day recovery period of 1-3 weeks. Briefly, animals were euthanized by CO2 inhalation and eyes were harvested with forceps and placed in 1.5 mL modified Davidson's Fixative (Electron Microscopy Science, Cat. No. 64133-50, lot no. 190621-08) for up to 24 hours at room temperature. Tissues were then transferred to 1.5 ml 10% neutral buffered formalin (Thermo Scientific, cat. no. 9400-5, lot no. 435456) at room temperature. Fixed tissues were submitted Vet Path Services, Inc. (Mason, Ohio) for histological processing and microscopic evaluation.
Provantis™ pathology software v 10.1.0.1 was utilized for data capture and table generation. Histopathology grades were assigned as grade 1 (minimal), grade 2 (mild), grade 3 (moderate), grade 4 (marked), or grade 5 (severe) based on an increasing extent of change, unless otherwise specified. H&E stained slides were evaluated with standard light microscopy and epifluorescence (450-490 nm excitation).

In a further data set the target is CYP2D6 (Homo sapiens, UniProt P10635). Kind of data set: In vitro metabolism by CYP2D6. Type of data set: in vitro ADME.
Chain of CYP2D6 (P10635 whole entry): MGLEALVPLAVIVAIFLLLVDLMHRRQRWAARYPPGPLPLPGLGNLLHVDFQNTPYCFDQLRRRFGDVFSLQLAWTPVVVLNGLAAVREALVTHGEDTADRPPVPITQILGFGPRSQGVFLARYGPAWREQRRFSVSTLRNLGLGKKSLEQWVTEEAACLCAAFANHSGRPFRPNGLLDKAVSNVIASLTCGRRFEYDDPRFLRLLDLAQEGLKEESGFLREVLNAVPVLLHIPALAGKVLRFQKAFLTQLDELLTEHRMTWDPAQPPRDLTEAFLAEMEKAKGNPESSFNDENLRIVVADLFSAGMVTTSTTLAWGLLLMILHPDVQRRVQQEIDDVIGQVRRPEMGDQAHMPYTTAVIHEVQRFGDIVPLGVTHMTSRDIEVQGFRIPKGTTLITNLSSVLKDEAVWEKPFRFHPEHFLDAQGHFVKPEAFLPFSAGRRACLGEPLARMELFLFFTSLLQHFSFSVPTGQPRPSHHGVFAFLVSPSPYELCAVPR

Molecules are shown by their SMILES. “Also recorded” adds a separate entry of the source.

Consider `CC(C)n1cc(C(=O)Nc2ccc(Oc3ccnc4[nH]nc(N[C@H](C)CO)c34)c(F)c2)c(=O)n(-c2ccc(F)cc2)c1=O` [Compound 1, (R)—N-(3-fluoro-4-((3-((1-hydroxypropan-2-yl)amino)-1H-pyrazolo[3,4-b]pyridin-4-yl)oxy)phenyl)-3-(4-fluorophenyl)-1-isopropyl-2,4-dioxo-1,2,3,4-tetrahydropyrimidine-5-carboxamide], for which the “abnormal ocular observation at recovery sacrifice (unlikely to be related to the test article)” value in the data set on C57BL/6 mice (Day 66, Compound 1 for four weeks in combination with anti-PD-1) is “unilateral focal atrophy of the outer nuclear layer in Animal 4”. Further, the “recovery period within which Compound 1-related microscopic retinal changes may be resolved” value with C57BL/6 mice (mice, histopathology assessment of the retinas) is recorded as 1-4 week. Besides, the “animals affected by swelling of rod and cone processes (incidence and grade)” value is “three animals were minimally affected and two animals were mildly affected” with C57BL/6 mice (Compound 1 for four weeks as monotherapy); “four of five animals were minimally affected” with C57BL/6 mice (Compound 1 for four weeks in combination with anti-PD-1). Further, in the data set on C57BL/6 mice (tumor-bearing mice, Day 66, 28 days after the 28-day dosing period), the “test article-related ocular changes at recovery sacrifice” value is recorded as “no definitively Compound 1-related changes were observed; also recorded: no definitively test article-related changes were observed”. For the same compound, the “test article-related microscopic changes in retina at terminal necropsy” value with C57BL/6 mice (tumor-naive mice, Day 38, Compound 1 50 mg/kg BID for 28 days (four weeks), as monotherapy or in combination with anti-PD-1, seen only under epifluorescent illumination, 50 mg/kg) is “multifocal swelling of the rod and cone processes in the retina; also recorded: multifocal swelling of the Rod and Cone processes in retina”. Besides, the “metabolizing enzyme in vitro” value on CYP2D6 is “primarily metabolized by CYP3A4 and CYP2D6”.

The record behind these values is US20230117328A1, “METHODS TO TREAT CANCER USING (R)-N-(3-FLUORO-4-((3-((1-HYDROXYPROPAN-2-YL)AMINO)-1H-PYRAZOLO[3,4-B]PYRIDIN-4-YL)OXY)PHENYL)-3-(4-FLUOROPHENYL)-1-ISOPROPYL-2,4-DIOXO-1,2,3,4-TETRAHYDROPYRIMIDINE-5-CARBOXAMIDE” (Array BioPharma Inc., priority 2020, published 2023).
